Values quoted from earlier work as cited in patent US20190021385A1, “ORALLY DISSOLVABLE COMPOSITIONS FOR NUTRITION SUPPLEMENTATION” (Exeltis USA, Inc., priority 2017, published 2019).

Conditions: intake of about 1000 IU per day, all adults; Bischoff-Ferrari 2008

C=C1CC[C@H](O)C/C1=C/C=C1\CCC[C@]2(C)[C@@H]([C@H](C)CCCC(C)C)CC[C@@H]12 [vitamin D3, cholecalciferol]
share of the population brought up to the 30 ng/ml serum range for 25-hydroxyvitamin D: at least 50%
